Results taken from patent US10745382B2 (BRISTOL-MYERS SQUIBB COMPANY, priority 2015, dated 2020).
Read-outs that look alike come from different tables or passages of the source.

Molecular target: T1, PD-1/PD-L1 (Homo sapiens, UniProt Q9NZQ7)
T1 construct: made in house; host or cells: HEK293T
Assay: PD-1/PD-L1 Homogenous Time-Resolved Fluorescence (HTRF) binding assay
Details: PD-L1-His 10 nM, PD-1-Ig 20 nM, read-out: Range or IC50
Procedure, shortened: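 Detection by europium cryptate anti-Ig plus APC anti-His (1 nM and 20 nM final) with HTRF signal. Buffer was dPBS, 0.1% BSA, 0.05% Tween-20.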

T1 sequence (Q9NZQ7 with tags, fused parts or gaps): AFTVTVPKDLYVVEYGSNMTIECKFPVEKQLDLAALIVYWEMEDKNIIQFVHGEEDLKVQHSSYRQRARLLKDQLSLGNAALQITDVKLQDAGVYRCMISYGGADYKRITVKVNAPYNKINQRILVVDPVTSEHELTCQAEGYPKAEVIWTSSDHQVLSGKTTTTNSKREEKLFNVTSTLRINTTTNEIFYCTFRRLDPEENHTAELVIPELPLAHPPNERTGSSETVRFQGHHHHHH

Row | SMILES | IC50 (value given as range class) [nM] | IC50 (numeric IC50) [nM]
1 | Cc1c(COc2cc(OCc3cncc(C#N)c3)c(CN3C[C@@H](O)C[C@H]3C(=O)O)cc2Cl)cccc1-c1cccc(C(=O)N(C)C)c1C [Example 4033, (2S,4S)-1-(5-chloro-2-((5-cyanopyridin-3-yl)methoxy)-4-((3′-(dimethylcarbamoyl)-2,2′-dimethyl-[1,1′-biphenyl]-3-yl)methoxy)benzyl)-4-hydroxypyrrolidine-2-carboxylic Acid] | 100 to 2000 | –
2 | Cc1c(COc2cc(OCc3cncc(C#N)c3)c(CNC(CO)CO)cc2Cl)cccc1-c1cccc(C(=O)N(C)C)c1C [Example 4034, 3′-((2-chloro-5-((5-cyanopyridin-3-yl)methoxy)-4-(((1,3-dihydroxypropan-2-yl)amino)methyl)phenoxy)methyl)-N,N,2,2′-tetramethyl-[1,1′-biphenyl]-3-carboxamide] | 10 to 100 | –
3 | Cc1c(COc2cc(OCc3cncc(C#N)c3)c(CNC(C)(CO)CO)cc2Cl)cccc1-c1cccc(C(=O)N(C)C)c1C [Example 4035, 3′-((2-chloro-5-((5-cyanopyridin-3-yl)methoxy)-4-(((1,3-dihydroxy-2-methylpropan-2-yl)amino)methyl)phenoxy)methyl)-N,N,2,2′-tetramethyl-[1,1′-biphenyl]-3-carboxamide] | 10 to 100 | –
4 | Cc1c(COc2cc(OCc3cncc(C#N)c3)c(CN3CCOC[C@H]3C(=O)O)cc2Cl)cccc1-c1cccc(C(=O)N(C)C)c1C [Example 4036, (S)-4-(5-chloro-2-((5-cyanopyridin-3-yl)methoxy)-4-((3′-(dimethylcarbamoyl)-2,2′-dimethyl-[1,1′-biphenyl]-3-yl)methoxy)benzyl)morpholine-3-carboxylic Acid] | 2010 to 10000 | –
5 | Cc1c(COc2cc(OCc3cncc(C#N)c3)c(CN3CCCC[C@H]3C(=O)O)cc2Cl)cccc1-c1cccc(C(=O)N2CCCC2)c1C [Example 4037, (S)-1-(5-chloro-2-((5-cyanopyridin-3-yl)methoxy)-4-((2,2′-dimethyl-3′-(pyrrolidine-1-carbonyl)-[1,1′-biphenyl]-3-yl)methoxy)benzyl)piperidine-2-carboxylic Acid] | 100 to 2000 | –
6 | Cc1c(COc2cc(OCc3cncc(C#N)c3)c(CNC(CO)CO)cc2Cl)cccc1-c1cccc(C(=O)N2CCCC2)c1C [Example 4038, 5-((4-chloro-2-(((1,3-dihydroxypropan-2-yl)amino)methyl)-5-((2,2′-dimethyl-3′-(pyrrolidine-1-carbonyl)-[1,1′-biphenyl]-3-yl)methoxy)phenoxy)methyl)nicotinonitrile] | 10 to 100 | –
7 | Cc1c(COc2cc(OCc3cncc(C#N)c3)c(CNC(C)(CO)CO)cc2Cl)cccc1-c1cccc(C(=O)N2CCCC2)c1C [Example 4039, 5-((4-chloro-2-(((1,3-dihydroxy-2-methylpropan-2-yl)amino)methyl)-5-((2,2′-dimethyl-3′-(pyrrolidine-1-carbonyl)-[1,1′-biphenyl]-3-yl)methoxy)phenoxy)methyl)nicotinonitrile] | 10 to 100 | –
8 | CCN(CC)C(=O)c1cccc(-c2cccc(COc3cc(OCc4cncc(C#N)c4)c(CN4CCCC[C@H]4C(=O)O)cc3Cl)c2C)c1C [Example 4040, (S)-1-(5-chloro-2-((5-cyanopyridin-3-yl)methoxy)-4-((3′-(diethylcarbamoyl)-2,2′-dimethyl-[1,1′-biphenyl]-3-yl)methoxy)benzyl)piperidine-2-carboxylic Acid] | – | 92
9 | CCN(CC)C(=O)c1cccc(-c2cccc(COc3cc(OCc4cncc(C#N)c4)c(CN4CCC[C@H]4C(=O)O)cc3Cl)c2C)c1C [Example 4041, (5-chloro-2-((5-cyanopyridin-3-yl)methoxy)-4-((3′-(diethylcarbamoyl)-2,2′-dimethyl-[1,1′-biphenyl]-3-yl)methoxy)benzyl)-L-proline] | 100 to 2000 | –
10 | CCN(CC)C(=O)c1cccc(-c2cccc(COc3cc(OCc4cncc(C#N)c4)c(CN4C[C@H](O)C[C@H]4C(=O)O)cc3Cl)c2C)c1C [Example 4042, (2S,4R)-1-(5-chloro-2-((5-cyanopyridin-3-yl)methoxy)-4-((3′-(diethylcarbamoyl)-2,2′-dimethyl-[1,1′-biphenyl]-3-yl)methoxy)benzyl)-4-hydroxypyrrolidine-2-carboxylic Acid] | 100 to 2000 | –
11 | CCN(CC)C(=O)c1cccc(-c2cccc(COc3cc(OCc4cncc(C#N)c4)c(CN4C[C@@H](O)C[C@H]4C(=O)O)cc3Cl)c2C)c1C [Example 4043, (2S,4S)-1-(5-chloro-2-((5-cyanopyridin-3-yl)methoxy)-4-((3′-(diethylcarbamoyl)-2,2′-dimethyl-[1,1′-biphenyl]-3-yl)methoxy)benzyl)-4-hydroxypyrrolidine-2-carboxylic Acid] | 10 to 100 | –
12 | CCN(CC)C(=O)c1cccc(-c2cccc(COc3cc(OCc4cncc(C#N)c4)c(CNC(CO)CO)cc3Cl)c2C)c1C [Example 4044, 3′-((2-chloro-5-((5-cyanopyridin-3-yl)methoxy)-4-(((1,3-dihydroxypropan-2-yl)amino)methyl)phenoxy)methyl)-N,N-diethyl-2,2′-dimethyl-[1,1′-biphenyl]-3-carboxamide] | 100 to 2000 | –
13 | CCN(CC)C(=O)c1cccc(-c2cccc(COc3cc(OCc4cncc(C#N)c4)c(CNC(C)(CO)CO)cc3Cl)c2C)c1C [Example 4045, 3′-((2-chloro-5-((5-cyanopyridin-3-yl)methoxy)-4-(((1,3-dihydroxy-2-methylpropan-2-yl)amino)methyl)phenoxy)methyl)-N,N-diethyl-2,2′-dimethyl-[1,1′-biphenyl]-3-carboxamide] | 100 to 2000 | –
14 | CCN(CC)C(=O)c1cccc(-c2cccc(COc3cc(OCc4cncc(C#N)c4)c(CN4CCOC[C@H]4C(=O)O)cc3Cl)c2C)c1C [Example 4046, (S)-4-(5-chloro-2-((5-cyanopyridin-3-yl)methoxy)-4-((3′-(diethylcarbamoyl)-2,2′-dimethyl-[1,1′-biphenyl]-3-yl)methoxy)benzyl)morpholine-3-carboxylic Acid] | 100 to 2000 | –
15 | Cc1c(COc2cc(OCc3cncc(C#N)c3)c(CN3CCCC[C@H]3C(=O)O)cc2Cl)cccc1-c1cccc(C(=O)N2CCOCC2)c1C [Example 4048, (S)-1-(5-chloro-2-((5-cyanopyridin-3-yl)methoxy)-4-((2,2′-dimethyl-3′-(morpholine-4-carbonyl)-[1,1′-biphenyl]-3-yl)methoxy)benzyl)piperidine-2-carboxylic Acid] | 100 to 2000 | –
16 | Cc1c(COc2cc(OCc3cncc(C#N)c3)c(CN3CCC[C@H]3C(=O)O)cc2Cl)cccc1-c1cccc(C(=O)N2CCOCC2)c1C [Example 4049, (5-chloro-2-((5-cyanopyridin-3-yl)methoxy)-4-((2,2′-dimethyl-3′-(morpholine-4-carbonyl)-[1,1′-biphenyl]-3-yl)methoxy)benzyl)-L-proline] | 100 to 2000 | –
17 | Cc1c(COc2cc(OCc3cncc(C#N)c3)c(CN3C[C@H](O)C[C@H]3C(=O)O)cc2Cl)cccc1-c1cccc(C(=O)N2CCOCC2)c1C [Example 4050, (2S,4R)-1-(5-chloro-2-((5-cyanopyridin-3-yl)methoxy)-4-((2,2′-dimethyl-3′-(morpholine-4-carbonyl)-[1,1′-biphenyl]-3-yl)methoxy)benzyl)-4-hydroxypyrrolidine-2-carboxylic Acid] | 100 to 2000 | –
18 | Cc1c(COc2cc(OCc3cncc(C#N)c3)c(CN3C[C@@H](O)C[C@H]3C(=O)O)cc2Cl)cccc1-c1cccc(C(=O)N2CCOCC2)c1C [Example 4051, (2S,4S)-1-(5-chloro-2-((5-cyanopyridin-3-yl)methoxy)-4-((2,2′-dimethyl-3′-(morpholine-4-carbonyl)-[1,1′-biphenyl]-3-yl)methoxy)benzyl)-4-hydroxypyrrolidine-2-carboxylic Acid] | 10 to 100 | –
19 | Cc1c(COc2cc(OCc3cncc(C#N)c3)c(CNC(CO)CO)cc2Cl)cccc1-c1cccc(C(=O)N2CCOCC2)c1C [Example 4052, 5-((4-chloro-2-(((1,3-dihydroxypropan-2-yl)amino)methyl)-5-((2,2′-dimethyl-3′-(morpholine-4-carbonyl)-[1,1′-biphenyl]-3-yl)methoxy)phenoxy)methyl)nicotinonitrile] | 10 to 100 | –
20 | Cc1c(COc2cc(OCc3cncc(C#N)c3)c(CNC(C)(CO)CO)cc2Cl)cccc1-c1cccc(C(=O)N2CCOCC2)c1C [Example 4053, 5-((4-chloro-2-(((1,3-dihydroxy-2-methylpropan-2-yl)amino)methyl)-5-((2,2′-dimethyl-3′-(morpholine-4-carbonyl)-[1,1′-biphenyl]-3-yl)methoxy)phenoxy)methyl)nicotinonitrile] | 10 to 100 | –
21 | Cc1c(COc2cc(OCc3cncc(C#N)c3)c(CN3CCOC[C@H]3C(=O)O)cc2Cl)cccc1-c1cccc(C(=O)N2CCOCC2)c1C [Example 4054, (S)-4-(5-chloro-2-((5-cyanopyridin-3-yl)methoxy)-4-((2,2′-dimethyl-3′-(morpholine-4-carbonyl)-[1,1′-biphenyl]-3-yl)methoxy)benzyl)morpholine-3-carboxylic Acid] | 100 to 2000 | –
22 | Cc1c(COc2cc(OCc3cncc(C#N)c3)c(CN[C@@H](CO)C(=O)O)cc2Cl)cccc1-c1cccc(C(=O)N2CCOCC2)c1C [Example 4055, (5-chloro-2-((5-cyanopyridin-3-yl)methoxy)-4-((2,2′-dimethyl-3′-(morpholine-4-carbonyl)-[1,1′-biphenyl]-3-yl)methoxy)benzyl)-L-serine] | 10 to 100 | –
23 | Cc1c(COc2cc(OCc3cncc(C#N)c3)c(CN[C@@H](CNC(=O)OC(C)(C)C)C(=O)O)cc2Cl)cccc1-c1cccc(C(=O)N2CCOCC2)c1C [Example 4056, (S)-3-((tert-butoxycarbonyl)amino)-2-((5-chloro-2-((5-cyanopyridin-3-yl)methoxy)-4-((2,2′-dimethyl-3′-(morpholine-4-carbonyl)-[1,1′-biphenyl]-3-yl)methoxy)benzyl)amino)propanoic Acid] | 100 to 2000 | –
